According to patent US8017612B2, “Piperazine compound and use thereof as a HCV polymerase inhibitor” (priority 2006, dated 2011):

How the values were obtained:
[1] = biological target: T1, HCV polymerase (NS5B) type 1b (Hepatitis C virus genotype 1b, UniProt P26663); assay: Assay of enzyme (HCV polymerase) inhibitory activity, type 1b enzyme; type: biochemical, HCV BK strain (type 1b)
T1 construct: a region encoding NS5B (J Virol 1991 March, 65(3), 1105-13, 544 amino acids after deletion of 47 amino acids on the C-terminal); 6xHis (C); made in house; host or cells: Escherichia coli
In short: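 Rxn: NS5B 1b (BK, ΔC47, His6) 0.5 μg/ml; substrate RNA 5 μg/ml; ATP/GTP/CTP 50 μM, UTP 2 μM + [5,6-3H]UTP; 20 mM Tris pH 7.5, 5 mM MgCl2, 50 mM NaCl, 1 mM EDTA/DTT. 25 °C, 60 min. Stop with TCA/pyrophosphate, filter, scintillation count; IC50 vs. untreated.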

[2] = biological target: T2, HCV polymerase (NS5B) type 1a (Hepatitis C virus genotype 1a, UniProt P26664); assay: Assay of enzyme (HCV polymerase) inhibitory activity, type 1a enzyme; type: biochemical, HCV type 1a (cloned from the blood of patients)
T2 construct: made in house; host or cells: Escherichia coli (by the 'similar method' of the 1b enzyme)
In short: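 NS5B Δ47 C-term His6 (type 1a, 1.5 μg/ml); substrate RNA 5 μg/ml; ATP/GTP/CTP 50 μM, UTP 2 μM + [5,6-3H]UTP; Tris pH 7.5, MgCl2 5 mM; 25° C, 60 min. TCA/pyrophosphate stop, GF/B filter, scintillation. IC50 vs no-compound control.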

[3] = HCV polymerase inhibitory activity (IC50), 1b, type 1b enzyme 0.5 μg/ml, 25° C., 60 min
[4] = HCV polymerase inhibitory activity (IC50), 1a, type 1a enzyme 1.5 μg/ml, 25° C., 60 min
[5] = HCV polymerase inhibitory activity IC50, 1b, type 1b enzyme
[6] = HCV polymerase inhibitory activity IC50, 1a, type 1a enzyme

Structure (SMILES) | IC50 [1, 3] [nM] | IC50 [2, 4] [nM] | IC50 [1, 5] [nM] | IC50 [2, 6] [nM]
COCC(=O)N1CCN(S(=O)(=O)c2ccc(C(F)(F)F)cc2)[C@@H](C(=O)NCc2ccc(C(C)C)cc2)C1 [Example 279, (R)-4-(2-methoxy-acetyl)-1-(4-trifluoromethyl-benzenesulfonyl)-piperazine-2-carboxylic acid 4-isopropyl-benzylamide] | 100 to 1000 | 100 to 1000 |  | 
CC(C)c1ccc(CNC(=O)[C@H]2CN(C(=O)Nc3ccc(OCC(=O)O)cc3)CCN2S(=O)(=O)c2ccc(C(F)(F)F)cc2)cc1 [Example 246, (4-{[(R)-3-(4-isopropyl-benzylcarbamoyl)-4-(4-trifluoromethyl-benzenesulfonyl)-piperazine-1-carbonyl]-amino}-phenoxy)-acetic acid] | 100 to 1000 | > 1000 |  | 
CCCc1ccc(CNC(=O)[C@H]2CN(c3cnc(C(=O)O)cn3)CCN2S(=O)(=O)c2ccc(OC(F)(F)F)cc2)cc1 [Example 374, (R)-3-(4-propyl-benzylcarbamoyl)-4-(4-trifluoromethoxy-benzenesulfonyl)-3,4,5,6-tetrahydro-2H-[1,2′]bipyrazinyl-5′-carboxylic acid] | < 100 | < 100 |  | 
CC(=O)N1CCN(S(=O)(=O)c2ccc(Br)s2)C(C(=O)NCc2ccc(C(F)(F)F)cc2)C1 (stereo not drawn) [Example 23, 4-acetyl-1-(5-bromo-thiophene-2-sulfonyl)-piperazine-2-carboxylic acid 4-trifluoromethyl-benzylamide] | > 1000 | > 1000 |  | 
CC(=O)N1CCN(S(=O)(=O)c2ccc(C(C)C)cc2)C(C(=O)NCc2cccc(Cl)c2)C1 (stereo not drawn) [Example 33, 4-acetyl-1-(4-isopropyl-benzenesulfonyl)-piperazine-2-carboxylic acid 3-chloro-benzylamide] | > 1000 | > 1000 |  | 
CC(=O)N1CCN(S(=O)(=O)c2ccc(C(C)C)cc2)C(C(=O)NCc2cccc(F)c2)C1 (stereo not drawn) [Example 78, 4-acetyl-1-(4-isopropyl-benzenesulfonyl)-piperazine-2-carboxylic acid 3-fluoro-benzylamide] | > 1000 | > 1000 |  | 
COc1ccc(S(=O)(=O)N2CCN(C(C)=O)C[C@@H]2C(=O)NCc2ccc(C(C)C)cc2)cc1C#N [Example 239, (R)-4-acetyl-1-(3-cyano-4-methoxy-benzenesulfonyl)-piperazine-2-carboxylic acid 4-isopropyl-benzylamide] | 100 to 1000 | > 1000 |  | 
CCCc1ccc(CNC(=O)[C@H]2CN(c3cnc4cncnc4n3)CCN2S(=O)(=O)c2ccc(OC(F)(F)F)cc2)cn1 [Example 720, (R)-4-pteridin-7-yl-1-(4-trifluoromethoxy-benzenesulfonyl)-piperazine-2-carboxylic acid (6-propyl-pyridin-3-ylmethyl)-amide] |  |  | < 100 | < 100
CC(C)c1ccc(S(=O)(=O)N2CCN(C3=NCCO3)CC2C(=O)NCc2ccc(C(F)(F)F)cc2)cc1 (stereo not drawn) [Example 133, 4-(4,5-dihydro-oxazol-2-yl)-1-(4-isopropyl-benzenesulfonyl)-piperazine-2-carboxylic acid 4-trifluoromethyl-benzylamide] | > 1000 | > 1000 |  | 
O=C(NCc1c(Cl)cc(Cl)cc1Cl)[C@H]1CN(c2cnc3cncnc3n2)CCN1S(=O)(=O)c1ccc(OC(F)(F)F)cc1 [Example 797, (R)-4-pteridin-7-yl-1-(4-trifluoromethoxy-benzenesulfonyl)-piperazine-2-carboxylic acid 2,4,6-trichloro-benzylamide] |  |  | < 100 | < 100
CC(=O)N1CCN(S(=O)(=O)c2ccc3c(c2)N(C)CCC3)[C@@H](C(=O)NCc2ccc(C(C)C)cc2)C1 [Example 307, (R)-4-acetyl-1-(1-methyl-1,2,3,4-tetrahydro-quinoline-7-sulfonyl)-piperazine-2-carboxylic acid 4-isopropyl-benzylamide] | < 100 | 100 to 1000 |  | 
O=C(NCc1ccc(OCF)cc1)[C@H]1CN(c2nc3nc(Cl)ncc3s2)CCN1S(=O)(=O)c1ccc(OC(F)(F)F)cc1 [Example 966, (R)-4-(5-chloro-thiazolo[4,5-d]pyrimidin-2-yl)-1-(4-trifluoromethoxy-benzenesulfonyl)-piperazine-2-carboxylic acid 4-fluoromethoxy-benzylamide] |  |  | < 100 | < 100
CCC(F)(F)c1ccc(CNC(=O)[C@H]2CN(C(=O)Cc3cc(C)no3)CCN2S(=O)(=O)c2ccc(OC(F)(F)F)cc2)cc1 [Example 480, (R)-4-[2-(3-methyl-isoxazol-5-yl)-acetyl]-1-(4-trifluoromethoxy-benzenesulfonyl)-piperazine-2-carboxylic acid 4-(1,1-difluoro-propyl)-benzylamide] | < 100 | < 100 |  | 
CC(C)c1ccc(CNC(=O)[C@H]2CN(c3ncc(C(=O)O)s3)CCN2S(=O)(=O)c2ccc(OC(F)(F)F)cc2)cc1 [Example 328, 2-[(R)-3-(4-isopropyl-benzylcarbamoyl)-4-(4-trifluoromethoxy-benzenesulfonyl)-piperazin-1-yl]-thiazole-5-carboxylic acid] | < 100 | < 100 |  | 
CCC(F)(F)c1ccc(CNC(=O)[C@H]2CN(c3cnc4ncccc4n3)CCN2S(=O)(=O)c2ccc(OC(F)(F)F)cc2)cc1 [Example 761, (R)-4-pyrido[2,3-b]pyrazin-2-yl-1-(4-trifluoromethoxy-benzenesulfonyl)-piperazine-2-carboxylic acid 4-(1,1-difluoro-propyl)-benzylamide] |  |  | < 100 | < 100
CCCc1ccc(CNC(=O)[C@H]2CN(c3nc4c(C(=O)O)cncc4s3)CCN2S(=O)(=O)c2ccc(CC)cc2)cc1 [Example 1065, 2-[(R)-4-(4-ethyl-benzenesulfonyl)-3-(4-propyl-benzylcarbamoyl)-piperazin-1-yl]-thiazolo[5,4-c]pyridine-7-carboxylic acid] |  |  | < 100 | < 100
CCCc1ccc(CNC(=O)[C@H]2CN(c3nc(C)c(C(=O)O)cc3F)CCN2S(=O)(=O)c2ccc(OC(F)(F)F)cc2)cc1 [Example 823, 5-fluoro-2-methyl-6-[(R)-3-(4-propyl-benzylcarbamoyl)-4-(4-trifluoromethoxy-benzenesulfonyl)-piperazin-1-yl]-nicotinic acid] |  |  | 100 to 1000 | 100 to 1000
CC(=O)N1CCN(S(=O)(=O)c2ccc(C(C)C)cc2)C(C(=O)NCc2ccc(Br)cc2)C1 (stereo not drawn) [Example 54, 4-acetyl-1-(4-isopropyl-benzenesulfonyl)-piperazine-2-carboxylic acid 4-bromo-benzylamide] | > 1000 | > 1000 |  | 
Cc1nc(Cl)c2sc(N3CCN(S(=O)(=O)c4ccc(OC(F)(F)F)cc4)[C@@H](C(=O)NCc4ccc(OC(F)(F)F)cc4)C3)nc2n1 [Example 907, (R)-4-(7-chloro-5-methyl-thiazolo[4,5-d]pyrimidin-2-yl)-1-(4-trifluoromethoxy-benzenesulfonyl)-piperazine-2-carboxylic acid 4-trifluoromethoxy-benzylamide] |  |  | < 100 | < 100
CCC(F)(F)c1ccc(CNC(=O)[C@H]2CN(c3cnc(CO)cn3)CCN2S(=O)(=O)c2ccc(OC(F)(F)F)cc2)cc1 [Example 560, (R)-5′-hydroxymethyl-4-(4-trifluoromethoxy-benzenesulfonyl)-3,4,5,6-tetrahydro-2H-[1,2′]bipyrazinyl-3-carboxylic acid 4-(1,1-difluoro-propyl)-benzylamide] | < 100 | < 100 |  | 
CC(=O)N1CCN(S(=O)(=O)c2ccc(C(C)C)cc2)[C@@H](C(=O)NCCc2cccnc2)C1 [Example 397, (R)-4-acetyl-1-(4-isopropyl-benzenesulfonyl)-piperazine-2-carboxylic acid (2-pyridin-3-yl-ethyl)-amide] | > 1000 | > 1000 |  | 
CNC(=O)c1cncc2ncc(N3CCN(S(=O)(=O)c4ccc(OC(F)(F)F)cc4)[C@@H](C(=O)NCc4ccc(OC(F)(F)F)cc4)C3)nc12 [Example 865, 2-[(R)-4-(4-trifluoromethoxy-benzenesulfonyl)-3-(4-trifluoromethoxy-benzylcarbamoyl)-piperazin-1-yl]-pyrido[3,4-b]pyrazine-8-carboxylic acid methylamide] |  |  | < 100 | < 100
CON(C)C(=O)c1ncc2sc(N3CCN(S(=O)(=O)c4ccc(OC(F)(F)F)cc4)[C@@H](C(=O)NCc4ccc(OC(F)(F)F)cc4)C3)nc2n1 [Example 1054, 2-[(R)-4-(4-trifluoromethoxy-benzenesulfonyl)-3-(4-trifluoromethoxy-benzylcarbamoyl)-piperazin-1-yl]-thiazolo[4,5-d]pyrimidine-5-carboxylic acid methoxy-methyl-amide] |  |  | < 100 | < 100
CC(C)c1ccc(CNC(=O)[C@H]2CN(C(=O)Nc3nncs3)CCN2S(=O)(=O)c2ccc(C(F)(F)F)cc2)cc1 [Example 332, (R)-4-(4-trifluoromethyl-benzenesulfonyl)-piperazine-1,3-dicarboxylic acid 3-(4-isopropyl-benzylamide) 1-[1,3,4]thiadiazol-2-ylamide] | < 100 | 100 to 1000 |  | 
